Here are results for five molecules from patent publication US20120208750A1, “USE OF PROTEIN KINASE C DELTA (PKCD) INHIBITORS TO TREAT DIABETES, OBESITY, AND HEPATIC STEATOSIS” (JOSLIN DIABETES CENTER, INC., priority 2009, published 2012).

What all share (assay type): in vivo, mouse
Assay [1] relates to PKCd. The assay is described as follows: Western blot of liver protein expression in tunicamycin-treated mice (ER stress): PKCd. The conditions noted are these: 1 μg/g i.p., 2, 4, 6 and 8 hours post-injection, FIG. 2E. As for the experimental part: (§1) Expression of PKCd mRNA and protein was assayed in livers mice of various genotypes and under various conditions of diet. For all mRNA studies samples were prepared using RNeasy extraction kit according to the manufacturer protocol (QIAGEN), mRNA was measured by quantitative real-time PCR (qPRC), and results were normalized to TBP. For western blot analysis, 40-50 ug of each extract was loaded per lane. Each lane represents an individual animal. On a normal chow diet at 24 weeks of age, B6 mice have ˜60% higher levels of PKCd mRNA in liver than 129 mice (1.11±0.11 vs. 0.71±0.04, p<0.02) (FIG. 1A). […] These differences in PKCd messenger expression lead to similar differences in expression at the protein level when assessed by Western blot analysis of liver extracts (FIG. 1B). This difference in PKCd expression between B6 and 129 mice was also observed at 6 weeks of age (FIG. 1C), when 129 mice actually weigh slightly more than the B6 (22.1±0.5 vs. 19.8±0.3 g, p<0.001) and have identical glucose and insulin levels.
To induce an inflammation in vivo, mice were injected intraperitoneally with 100 μg LPS (Escherichia coli 55:B5; Sigma) or sterile saline as control. Mice were sacrificed 18 hours post-injection. […]

A further assay relates to Bip. Briefly: Western blot of liver protein expression in tunicamycin-treated mice (ER stress): Bip. The settings on record: 1 μg/g i.p., 2, 4, 6 and 8 hours post-injection, FIG. 2E.
Assay [2] deals with PKCd. The assay is described as follows: PKCd mRNA expression in streptozotocin diabetic mice and insulin- or phlorizin-rescued mice (qPCR). The conditions noted are these: STZ diabetic mice; rescue with s.c. insulin pellets or phlorizin 0.4 g/kg s.c. twice daily 10 days, FIG. 2F-G. As for the experimental part:
as §1
Streptozotocin treatment was performed as follows. Mice at 6 weeks of age received either daily i.p. injections of sodium citrate (pH 4.3) for controls or STZ (Sigma) resuspended in sodium citrate, 100 μg per g of body weight for three consecutive days. When these mice achieved fed glucose levels of >400 mg/dl for three consecutive days, they were separated into two equal groups. One group was not treated, while the other were treated with s.c. insulin pellets (LinShin, Toronto, ON, Canada), to obtain fed glucose levels of <200 mg/dl for at least three consecutive days. For phlorizin treatment of diabetic mice, male 8-week-old C57B1/6 mice were treated with a single intraperitoneal injection (200 μg/g body weight) of STZ (Sigma). PHZ (Sigma) was dissolved in a solution containing 10% ethanol, 15% DMSO, and 75% saline and was injected subcutaneously at a dose of 0.4 g/kg twice daily for 10 days from 8 days after the STZ injection. Control mice were injected with the same volume of vehicle.

Assay [3] deals with PKCd. The assay is described as follows: PKCd mRNA expression in liver of leptin and/or insulin treated ob/ob mice (qPCR). The conditions noted are these: short-term infusion (osmotic pump 4 days; insulin pellets s.c.), FIG. 2C. As for the experimental part:
as §1
Although the difference in PKCd expression can be observed between B6 and 129 mice prior to the onset of obesity, obesity and insulin resistance also regulate PKCd. […]
On the technique in general: Real-time PCR tracks product formation cycle by cycle.

Take tunicamycin: in the assay on PKCd [1], the “PKCd protein expression in liver during onset of ER stress” value was “did not observe any alterations”. In the assay on Bip, the “ER stress chaperone protein Bip expression in liver” value is given as “clearly induced”. In the case of `CN(N=O)C(=O)N[C@H]1C(O)O[C@H](CO)[C@@H](O)[C@@H]1O` (mixture of isomers) [STZ, streptozotocin], the “differences in PKCd expression vs control” value with PKCd [2] is “no differences”. On the same count and under the same terms, the entry for `O=C(CCc1ccc(O)cc1)c1c(O)cc(O)cc1O[C@@H]1O[C@H](CO)[C@@H](O)[C@H](O)[C@H]1O` [phlorizin] is “no differences”. In the case of insulin, in the assay with PKCd [3], the “reversal of increased expression of PKCd in liver” value is given as “not reversed”. Besides, the “differences in PKCd expression vs control” value in the assay with PKCd [2] is “no differences”.

B1: leptin: recombinant mouse leptin delivered by osmotic pump (protein, UniProt P41160 22-167, looked up)
Leptin: VPIQKVQDDTKTLIKTIVTRINDISHTQSVSAKQRVTGLDFIPGLHPILSLSKMDQTLAVYQQVLTSLPSQNVLQIANDLENLRDLLHLLAFSKSCSLPQTSGLQKPESLDGVLEASLYSTEVVALSRLQGSLQDILQQLDVSPEC
On to B1, for which the “reversal of increased expression of PKCd in liver” value with PKCd [3] is “not reversed”.
